Experimental data from patent publication US7132279B2, “Epidermal melanocyte culture formulations” (New York Eye & Ear Infirmary, priority 2003, dated 2006).
Where no end group is shown, it is not given here.

Experiments:
epidermal melanocytes [1] = assay: Melanin production of cultured epidermal melanocytes (optical density at 475 nm); assay type: cell-based, human; conditions: 6 days
Protocol: (§1) Three deleted media were used for the study, (i) growth factor-deleted medium, (ii) cAMP-elevating agent deleted medium and (iii) serum-depleted medium. Various testing substances were added to the three deleted media above. These substances include bFGF, HGF, epinephrine and α-MSH. The deleted medium without the test substance was the negative control and the complete medium is the positive control.
Melanocytes cultured as described above were detached by trypsin-EDTA solution and counted in a hemocytometer. The cell suspensions were centrifuged and the pellet was resuspended in 1N NaOH. Melanin concentration was determined by measurement of optical density at 475 nm by a spectrophotometer and compared with a standard curve obtained using synthetic melanin (Sigma, St. Louis, Mo.). Melanin content is expressed as μg/culture or ng/cell (Hu et al., 1995, Invest. Ophthalmol Vis Sci 36:931).

epidermal melanocytes [2] = assay: Cell growth of cultured epidermal melanocytes by cell counting (6 days); assay type: cell-based, human
Protocol: as §1
Human skin specimens containing epidermis were obtained from a donor. The specimens were incubated in 0.25% trypsin solution (GIBCO, Carlsbad, Calif.) for 15 minutes at 37° C., followed by a 10 minute incubation with 0.2% EDTA (Sigma, St. Louis, Mo.) solution. The epidermal sheets were gently treated with forceps to dissociate the epidermal cells and to yield an epidermal cell suspension. The epidermal cells were centrifuged and seeded into a 25 cm^2 flask with the culture medium. The flask was incubated at 37° C. in an atmosphere of 95% humidified air and 5% CO2. Geneticin (Sigma, St. Louis, Mo.) was added (100 μg/ml) for three days to eliminate keratinocytes and fibroblasts. The medium was changed every three days. The melanocytes typically reached confluence in two weeks. After reaching confluence, the melanocytes were detached using trypsin-EDTA solution, centrifuged, diluted and seeded for subculture. At the time of transplantation, the melanocytes were detached using trypsin-EDTA solution, centrifuged and resuspended with F12 medium.
Cell counting was used to evaluate the effect of the test substance on growth of epidermal melanocytes. Epidermal melanocytes were plated in 6-well plates at a density of 1×10^5 cells per well with medium. After 24 hours, medium was replaced by the testing media. The media was changed every three days. After six days, the cells were detached with trypsin-EDTA solution and neutralized with culture medium with 10% serum. The cell suspension was centrifuged and the pellet was resuspended in 1 ml F12 medium, 20 μl of the cell suspension was collected into the tip of a Pasteur pipette and transferred to a hemocytometer. The hemocytometer was observed under an optical microscope. Cells falling in four […] areas bounded by three parallel lines were counted. The cell number was obtained using Formula I shown below (Freshney, 1987, Culture of Animal Cells. Wiley-Liss, Inc., New York, 2nd edition). The average of four counts was calculated. Triplicate samples were assayed in all experiments. c=n×10^4 FORMULA I • where c=concentration (cells/ml), n=number of cells counted.

epidermal melanocytes [3] = assay: Migration of cultured epidermal melanocytes in Boyden chambers; assay type: cell-based, human; conditions: for Migration of epidermal melanocytes: cAMP deleted medium
Protocol: Cell migration experiments were performed on early passages of cells in 48-well Boyden chambers (Neuroprobe, Bethesda, Md.). Cultured epidermal melanocytes were dissociated with 0.05% trypsin-EDTA (Sigma, St. Louis, Mo.) at 37° C. for 2–3 minutes, neutralized by culture medium with 10% FBS. The cells were centrifuged and resuspended in culture medium. The lower half of the Boyden chambers contained culture medium with or without tested substances. An 8 μm pore cellulose nitrate filter separated the upper and lower wells. Epidermal melanocytes (3×10^4) suspended in 50 μl culture medium (with or without tested substances) were added to the upper wells. The chamber was incubated at 37° C. in a humidified atmosphere at 95% air and 5% CO2. After 6 hours, the filter was removed from the chamber, fixed in 95% ethanol for 5 minutes, and stained with hematoxylin for 1 minute. The number of cells migrating through the filter and attached to the lower surface of the filter was counted (Doerr et al., 1996, J Biol Chem 271:2443; Verdoorn et al., 1986, Arch Ophtalmol 104:1216). Triplicate samples were assayed in all experiments.

ocular melanocytes = conditions: Hu, 2000; cited from earlier work
epidermal melanocytes [4] = conditions: Halaban et al., 1988; cholera toxin in the media; cited from earlier work
[5] = cAMP-elevating agents-deleted medium, epinephrine 1-3,000 ng/ml, α-MSH 1-1,000 ng/ml
[6] = growth factor-deleted medium, 1-1,000 ng/ml

Row | Compound | Melanin content/well versus control (epidermal melanocytes [1]; [5]) | Cell growth (cell number) versus control (epidermal melanocytes [2]; [5]) | Migration of epidermal melanocytes (epidermal melanocytes [3]) | Melanin content/well versus control (epidermal melanocytes [1]; [6]) | Cell growth (cell number) versus control (epidermal melanocytes [2]; [6]) | Migration cell number versus control (epidermal melanocytes [3]; 1-1,000 ng/ml, 6 hours) | Growth of cultured ocular melanocytes (ocular melanocytes) | Growth of cultured epidermal melanocytes (epidermal melanocytes [4])
1 | CNC[C@H](O)c1ccc(O)c(O)c1 [epinephrine, (L)-Epinephrine bitartrate] | significantly greater than that of the controls | dose dependent stimulation of cell growth | stimulated the growth, melanogenesis and migration |  |  |  |  | 
2 | HGF: hepatocyte growth factor, pleiotrophic growth factor (PeproTech) |  |  |  | significantly greater than that of the controls | dose dependent stimulation of cell growth | dose dependent stimulation of migration | stimulates growth of cultured ocular melanocytes | 
3 | bFGF: basic fibroblast growth factor (PeproTech) |  |  |  | did not show any significant influence on melanin content | dose dependent stimulation of cell growth |  |  | 
4 | α-MSH: tridecapeptide with a sequence identical to the first 13 amino acids of adrenocorticotropin (ACTH) (SYSMEHFRWGKPV; ends and bridges not checked; UniProt P01189 138-150, looked up) | significantly greater than that of the controls | dose dependent stimulation of cell growth | stimulated the growth, melanogenesis and migration |  |  |  |  | failed to stimulate growth
